Blank lines part the entries; values can stand above or below the compound they belong to.
Columns and labels:
Thymidine phosphorylase = biological target: T1, Thymidine phosphorylase (Mus musculus, UniProt Q99N42); experiment: In vitro non-competitive inhibition of cleavage of Thymidine (dThd) phosphorylase isolated from Lewis lung carcinoma.; type: tissue-based
T1 sequence (Q99N42 whole entry): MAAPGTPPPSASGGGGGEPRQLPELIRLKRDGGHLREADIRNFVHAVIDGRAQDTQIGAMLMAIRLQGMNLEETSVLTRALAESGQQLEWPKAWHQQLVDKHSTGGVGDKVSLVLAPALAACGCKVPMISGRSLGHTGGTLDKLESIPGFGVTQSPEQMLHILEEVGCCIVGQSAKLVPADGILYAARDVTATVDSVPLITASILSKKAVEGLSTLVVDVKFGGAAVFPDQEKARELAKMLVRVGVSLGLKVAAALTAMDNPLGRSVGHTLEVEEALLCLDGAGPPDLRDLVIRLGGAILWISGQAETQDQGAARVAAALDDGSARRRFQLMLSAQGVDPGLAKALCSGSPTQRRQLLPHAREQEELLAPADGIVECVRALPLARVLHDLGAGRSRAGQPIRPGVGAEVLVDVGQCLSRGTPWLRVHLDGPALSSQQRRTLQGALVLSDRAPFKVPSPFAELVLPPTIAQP

L1210 [1] = experiment: In vitro concentration required for 50% inhibition (IC50) of growth of L1210 mouse leukemia cells in culture; type: functional, cell-based
[2] = Apparent rate constant Koff for inactivation of dTMP synthase.
[3] = biological target: Thymidylate synthase (Lactobacillus casei); experiment: In vitro competitive inhibition of dTMP synthetase with respect to substrate dUMP.
[4] = Apparent rate constant Kon for inactivation of dTMP synthase.
L1210 [5] = experiment: In vitro concentration required for 50% inhibition (IC50) of growth of L1210 mouse leukemia cells in culture.; type: functional, cell-based

Ki (Thymidine phosphorylase): 1700 µM
IC50 (L1210 [1]): 3.4 µM
Compound: O=c1[nH]c(=O)n([C@H]2C[C@H](F)[C@@H](CO)O2)cc1F

K off [2]: 0.000233 s⁻¹
Ki [3]: 130 µM
Kon [4]: 0.029 s⁻¹
Compound: O=c1[nH]c(=O)n(C2CC(F)C(COP(=O)(O)O)O2)cc1F (stereo unspecified)

IC50 (L1210 [5]): 0.0005 µM
Compound: O=c1[nH]c(=O)n([C@H]2C[C@H](O)[C@@H](CO)O2)cc1F [FLOXURIDINE]

From ChEMBL document CHEMBL1122749, “Synthesis and biological activity of 5-fluoro-2',3'-dideoxy-3'-fluorouridine and its 5'-phosphate” (J Med Chem, 1984)
